# PubChem BioAssay (NCI)
#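 48-hour exposure; five concentrations; linearly interpolated endpoints. GI50: concentration for 50% inhibition of growth. TGI: concentration producing complete growth inhibition.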
# How the values were obtained:
# Assay in all cases: NCI tumour cell line growth inhibition, 48 h
# 786-0 renal = test system: 786-0 renal
# A498 renal = test system: A498 renal
# A549 NSCLC = test system: A549 NSCLC
# ACHN renal = test system: ACHN renal
# BT-549 breast = test system: BT-549 breast
# CAKI-1 renal = test system: CAKI-1 renal
# CCRF-CEM leukemia = test system: CCRF-CEM leukemia
# COLO 205 colon = test system: COLO 205 colon
# DU-145 prostate = test system: DU-145 prostate
# EKVX NSCLC = test system: EKVX NSCLC
# HCC-2998 colon = test system: HCC-2998 colon
# HCT-116 colon = test system: HCT-116 colon
# HCT-15 colon = test system: HCT-15 colon
# HL-60(TB) leukemia = test system: HL-60(TB) leukemia
# HOP-62 NSCLC = test system: HOP-62 NSCLC
# HOP-92 NSCLC = test system: HOP-92 NSCLC
# HS 578T breast = test system: HS 578T breast
# HT29 colon = test system: HT29 colon
# IGROV1 ovarian = test system: IGROV1 ovarian
# K-562 leukemia = test system: K-562 leukemia
# KM12 colon = test system: KM12 colon
# LOX IMVI melanoma = test system: LOX IMVI melanoma
# M14 melanoma = test system: M14 melanoma
# MALME-3M melanoma = test system: MALME-3M melanoma
# MCF7 breast = test system: MCF7 breast
# MDA-MB-231 breast = test system: MDA-MB-231 breast
# MDA-MB-435 = test system: MDA-MB-435
# MOLT-4 leukemia = test system: MOLT-4 leukemia
# NCI-H226 lung = test system: NCI-H226 lung
# NCI-H23 lung = test system: NCI-H23 lung
# NCI-H460 lung = test system: NCI-H460 lung
# NCI-H522 lung = test system: NCI-H522 lung
# NCI/ADR-RES ovarian = test system: NCI/ADR-RES ovarian
# OVCAR-3 ovarian = test system: OVCAR-3 ovarian
# OVCAR-4 ovarian = test system: OVCAR-4 ovarian
# OVCAR-5 ovarian = test system: OVCAR-5 ovarian
# OVCAR-8 ovarian = test system: OVCAR-8 ovarian
# PC-3 prostate = test system: PC-3 prostate
# RPMI-8226 leukemia = test system: RPMI-8226 leukemia
# RXF 393 renal = test system: RXF 393 renal
# SF-268 CNS = test system: SF-268 CNS
# SF-295 CNS = test system: SF-295 CNS
# SF-539 CNS = test system: SF-539 CNS
# SK-MEL-2 melanoma = test system: SK-MEL-2 melanoma
# SK-MEL-28 melanoma = test system: SK-MEL-28 melanoma
# SK-MEL-5 melanoma = test system: SK-MEL-5 melanoma
# SK-OV-3 ovarian = test system: SK-OV-3 ovarian
# SN12C renal = test system: SN12C renal
# SNB-19 CNS = test system: SNB-19 CNS
# SNB-75 CNS = test system: SNB-75 CNS
# SR leukemia = test system: SR leukemia
# SW-620 colon = test system: SW-620 colon
# T-47D breast = test system: T-47D breast
# TK-10 renal = test system: TK-10 renal
# U251 CNS = test system: U251 CNS
# UACC-257 melanoma = test system: UACC-257 melanoma
# UACC-62 melanoma = test system: UACC-62 melanoma
# UO-31 renal = test system: UO-31 renal
compound,measurement,setting,value
CC(=C(c1ccc(OCCN2CCCC2)cc1)c1ccc(OCCN2CCCC2)cc1)c1ccc(Cl)cc1,GI50,786-0 renal,2110 nM
same,TGI,786-0 renal,4520 nM
same,GI50,A498 renal,2450 nM
same,TGI,A498 renal,4850 nM
same,GI50,A549 NSCLC,2740 nM
same,TGI,A549 NSCLC,5740 nM
same,GI50,ACHN renal,2530 nM
same,TGI,ACHN renal,4780 nM
same,GI50,BT-549 breast,2630 nM
same,TGI,BT-549 breast,5120 nM
same,GI50,CAKI-1 renal,2500 nM
same,TGI,CAKI-1 renal,4850 nM
same,GI50,CCRF-CEM leukemia,1400 nM
same,TGI,CCRF-CEM leukemia,4720 nM
same,GI50,COLO 205 colon,2730 nM
same,TGI,COLO 205 colon,6140 nM
same,GI50,DU-145 prostate,2600 nM
same,TGI,DU-145 prostate,5140 nM
same,GI50,EKVX NSCLC,2270 nM
same,TGI,EKVX NSCLC,4650 nM
same,GI50,HCC-2998 colon,2700 nM
same,TGI,HCC-2998 colon,5320 nM
same,GI50,HCT-116 colon,1150 nM
same,TGI,HCT-116 colon,3580 nM
same,GI50,HCT-15 colon,655 nM
same,TGI,HCT-15 colon,2530 nM
same,GI50,HL-60(TB) leukemia,3010 nM
same,TGI,HL-60(TB) leukemia,6340 nM
same,GI50,HOP-62 NSCLC,2930 nM
same,TGI,HOP-62 NSCLC,5970 nM
same,GI50,HOP-92 NSCLC,1490 nM
same,TGI,HOP-92 NSCLC,3920 nM
same,GI50,HS 578T breast,2680 nM
same,TGI,HS 578T breast,6590 nM
same,GI50,HT29 colon,660 nM
same,TGI,HT29 colon,2520 nM
same,GI50,IGROV1 ovarian,2560 nM
same,TGI,IGROV1 ovarian,5110 nM
same,GI50,K-562 leukemia,498 nM
same,TGI,K-562 leukemia,1750 nM
same,GI50,KM12 colon,2660 nM
same,TGI,KM12 colon,5630 nM
same,GI50,LOX IMVI melanoma,516 nM
same,TGI,LOX IMVI melanoma,2620 nM
same,GI50,M14 melanoma,2130 nM
same,TGI,M14 melanoma,4590 nM
same,GI50,MALME-3M melanoma,2630 nM
same,TGI,MALME-3M melanoma,5180 nM
same,GI50,MCF7 breast,409 nM
same,TGI,MCF7 breast,2730 nM
same,GI50,MDA-MB-231 breast,2370 nM
same,TGI,MDA-MB-231 breast,4950 nM
same,GI50,MDA-MB-435,2620 nM
same,TGI,MDA-MB-435,5030 nM
same,GI50,MOLT-4 leukemia,1380 nM
same,TGI,MOLT-4 leukemia,4390 nM
same,GI50,NCI-H226 lung,3040 nM
same,TGI,NCI-H226 lung,6180 nM
same,GI50,NCI-H23 lung,2690 nM
same,TGI,NCI-H23 lung,5200 nM
same,GI50,NCI-H460 lung,2960 nM
same,TGI,NCI-H460 lung,5580 nM
same,GI50,NCI-H522 lung,2960 nM
same,TGI,NCI-H522 lung,5990 nM
same,GI50,NCI/ADR-RES ovarian,2810 nM
same,TGI,NCI/ADR-RES ovarian,5720 nM
same,GI50,OVCAR-3 ovarian,2640 nM
same,TGI,OVCAR-3 ovarian,5300 nM
same,GI50,OVCAR-4 ovarian,2650 nM
same,TGI,OVCAR-4 ovarian,5390 nM
same,GI50,OVCAR-5 ovarian,2560 nM
same,TGI,OVCAR-5 ovarian,4900 nM
same,GI50,OVCAR-8 ovarian,3250 nM
same,TGI,OVCAR-8 ovarian,7160 nM
same,GI50,PC-3 prostate,2290 nM
same,TGI,PC-3 prostate,4790 nM
same,GI50,RPMI-8226 leukemia,2570 nM
same,TGI,RPMI-8226 leukemia,6740 nM
same,GI50,RXF 393 renal,2010 nM
same,TGI,RXF 393 renal,4200 nM
same,GI50,SF-268 CNS,2700 nM
same,TGI,SF-268 CNS,5460 nM
same,GI50,SF-295 CNS,2690 nM
same,TGI,SF-295 CNS,5140 nM
same,GI50,SF-539 CNS,2340 nM
same,TGI,SF-539 CNS,4670 nM
same,GI50,SK-MEL-2 melanoma,3100 nM
same,TGI,SK-MEL-2 melanoma,6220 nM
same,GI50,SK-MEL-28 melanoma,2640 nM
same,TGI,SK-MEL-28 melanoma,5100 nM
same,GI50,SK-MEL-5 melanoma,2740 nM
same,TGI,SK-MEL-5 melanoma,5210 nM
same,GI50,SK-OV-3 ovarian,2900 nM
same,TGI,SK-OV-3 ovarian,5490 nM
same,GI50,SN12C renal,2500 nM
same,TGI,SN12C renal,4980 nM
same,GI50,SNB-19 CNS,2790 nM
same,TGI,SNB-19 CNS,5300 nM
same,GI50,SNB-75 CNS,6850 nM
same,TGI,SNB-75 CNS,16700 nM
same,GI50,SR leukemia,745 nM
same,TGI,SR leukemia,16700 nM
same,GI50,SW-620 colon,2160 nM
same,TGI,SW-620 colon,4540 nM
same,GI50,T-47D breast,1940 nM
same,TGI,T-47D breast,5020 nM
same,GI50,TK-10 renal,2580 nM
same,TGI,TK-10 renal,5210 nM
same,GI50,U251 CNS,2200 nM
same,TGI,U251 CNS,4880 nM
same,GI50,UACC-257 melanoma,2970 nM
same,TGI,UACC-257 melanoma,5850 nM
same,GI50,UACC-62 melanoma,2850 nM
same,TGI,UACC-62 melanoma,5520 nM
same,GI50,UO-31 renal,2240 nM
same,TGI,UO-31 renal,4460 nM
